# Test results as given in paper PMC3127977, “No relevant cardiac, pharmacokinetic or safety interactions between roflumilast and inhaled formoterol in healthy subjects: an open-label, randomised, actively controlled study” (BMC Clinical Pharmacology, 2011).
# Assays:
# [1] = Steady-state plasma pharmacokinetics (HPLC-MS/MS) in healthy men; oral roflumilast 500 μg once daily, inhaled formoterol 24 μg twice daily; conditions: for Cmax: Cmax (formoterol)
# Procedure: (§1) For Regimen A, subjects received 500 μg oral roflumilast once daily (daily dose: one tablet of roflumilast 500 μg) from the morning of Day 2 to the morning of Day 18. […] For Regimen B, subjects received 24 μg formoterol for oral inhalation delivered by a DPI device (Foradil® P) twice daily, once in the morning and once in the evening from the morning of Day 2 to the evening of Day 18.
# Pre-dose blood samples for determination of trough levels were taken on Days 9 and 10 for Regimen A (morning only), and on Days 6 and 7 (morning and evening) for Regimen B. Blood samples (4.5 mL) were collected in heparinised tubes and plasma was obtained by centrifugation at 1550 g for 15 minutes. Plasma samples were stored at -20°C or below for roflumilast, and at -70°C for formoterol. Plasma concentrations of roflumilast and roflumilast N-oxide were determined using high-performance liquid chromatography coupled with tandem mass spectrometry (HPLC-MS/MS). […] Roflumilast and roflumilast N-oxide standard curves were valid up to 20 ng/mL and 40 ng/mL, respectively. Determination of roflumilast and roflumilast N-oxide was performed at Altana Pharma AG, Konstanz, Germany (Nycomed GmbH). Plasma concentrations of formoterol were determined using HPLC-MS/MS. The LLOQ in plasma was 0.4 pg/mL using a sample volume of 1.0 mL. […] Determination of formoterol was performed at pharm-analyt Labor GmbH, Baden, Austria, under the supervision of Altana Pharma AG(Nycomed GmbH).
# For roflumilast, roflumilast N-oxide and formoterol, the maximum plasma concentration (Cmax) was derived directly from the plasma concentrations. The AUC from time zero to the time of the last quantifiable concentration, which corresponded to the dosing interval of each analyte (AUC0-τ), was estimated using the linear trapezoidal method. Apparent clearance at steady state (CL/F; calculated by dose/AUCτ) was reported for roflumilast only. […] The calculation of tPDE4i was based on the equation described in Lahu et al..
# healthy subjects [2] = assay: Transthoracic impedance cardiography (ZCG) and systolic time intervals in healthy men; oral roflumilast 500 μg once daily, inhaled formoterol 24 μg twice daily; conditions: Regimen B
# Procedure: as §1
# Cardiovascular effects were evaluated non-invasively by means of ECGs (cardiac rhythm, intra-cardiac conduction and ventricular repolarisation), oscillometric blood pressure and transthoracic impedance cardiography (ZCG; systolic time intervals, contractility indices and estimates of stroke volume and cardiac output). Cardiovascular assessments (oscillometric blood pressure, pulse rate, 12-lead ECG, and three-lead ZCG) were recorded before dosing and at 10, 20, 40 and 60 minutes, and at 2, 3, 4, 5, 6, 7 and 8 hours after morning dosing. […] All cardiovascular measurements were carried out after the subjects had been recumbent for at least 10 minutes; they generally stayed in bed from 1 hour before until 8 hours after morning dosing.
# Systolic time intervals (STIs) and ZCG estimates of the systolic cardiac pump performance were derived from the simultaneous registration of a one-lead ECG, a phonocardiogram (PCG), and the rate of change of the transthoracic impedance (dZ/dt) to an AC current applied through the thoracic cage (CARDIODYNAGRAPH; Diefenbach GmbH, Wiesbaden, Germany). Tracings were captured and stored digitally during the study and subsequently analysed after the study by displaying the analogue ECG, PCG and ZCG signals on a computer screen. The relevant signal amplitudes and time intervals were delineated manually by operator-steered cursors; measurements were made for at least 10 artefact-free consecutive cardiac cycles. From these tracings, the following variables were derived by direct measurement: RR interval (ms), total electromechanic systole (QS2 [ms]), ventricular ejection time (VET [ms]), baseline transthoracic impedance (Z0 [Ω]), and maximum negative velocity of transthoracic impedance changes during the cardiac cycle (dZ/dtmax [Ω/s]). These variables were analysed for the 10 cycles and their means were used in the calculations of the following variables: heart rate (HR [bpm]), pre-ejection period (PEP [ms] = QS2 - VET), HR-corrected STIs (STIc and STIi according to Weissler et al.), ZCG estimates of stroke volume (SV [mL] according to Kubicek's equation [37] using the equation of Geddes and Sadler for the specific resistance of blood), cardiac output (CO [mL/min]), and total peripheral resistance (TPR [dyn.s.cm^-5]). For the latter variable, the mean blood pressure (MBP [mmHg]) was used as calculated according to Wezler and Böger from the systolic blood pressure (mmHg) and the diastolic blood pressure (mmHg).
# ZCG analysis was carried out by a single analyst who was blinded with regard to subject, study regimen, profiling day within regimen, and time during the day.
# healthy subjects [3] = assay: Digital 12-lead electrocardiography (HR, QT, QTc); assay type: in vivo, human
# Procedure: Digital 12-lead ECGs were recorded immediately after each ZCG recording. Tracings were analysed off-study by regimen-blinded qualified analysts, using previously reported methodology. For each time point, three cycles were measured with regard to the RR, PQ and QT-intervals [ms]. The means of the three measurements were used for the calculation of HR and HR-corrected QTc intervals, according to Bazett's equation (QTcB = QT/RR^1/2) and Fridericia's equation (QTcF = QT/RR^1/3).
# healthy subjects [4] = assay: Adverse event monitoring; assay type: in vivo, human
# Source text: Blood and urine samples for conventional clinical laboratory safety tests were obtained at the screening visit, in the morning of each main profiling day, and on Day 19. Adverse events (AEs) were monitored throughout the study.
# [5] = cited from earlier work
# [6] = test system: human parenchymal and bronchial explants; conditions: in vitro; cited from earlier work
# [7] = Serum glucose concentration on profiling days; conditions: Regimen B, throughout Day 8 compared with Day 1
# Source text: (§2) During the main profiling days, blood was sampled at each ZCG time point for the determination of serum glucose and potassium concentrations.
# [8] = Serum potassium concentration on profiling days; conditions: Regimen B, Day 8
# Source text: as §2
# [9] = cited from earlier work; remark: listed apart in the source
structure (smiles),measurement,setting,value
COc1ccc(CC(C)NCC(O)c2ccc(O)c(NC=O)c2)cc1 (centres unmarked) [Formoterol],changes in steady-state pharmacokinetics when the other drug was added,"[1]; formoterol added to roflumilast, or roflumilast added to formoterol",no changes
same,Cmax,"[1]; male, human, in vivo, 24 μg, steady state, Regimen B Day 8 (formoterol alone), geometric mean (68% range)",16.7 ng/mL
same,AUC,"[1]; male, human, in vivo, AUCτ (formoterol), steady state, Regimen A Day 18 (roflumilast plus formoterol), geometric mean (68% range)",93.2 ng·h/mL
same,Cmax,"[1]; male, human, in vivo, steady state, Regimen A Day 18 (roflumilast plus formoterol), geometric mean (68% range)",18.7 ng/mL
same,Cmax,"[1]; male, human, in vivo, steady state, Regimen B Day 18 (formoterol plus roflumilast), geometric mean (68% range)",17.2 ng/mL
same,Ctrough (formoterol),"[1]; steady state, Regimen A Day 18 (roflumilast plus formoterol), geometric mean (68% range)",4.23 (2.43-7.38) μg/L
same,Ctrough (formoterol),"[1]; steady state, Regimen B Day 8 (formoterol alone), geometric mean (68% range)",4.12 (3.05-5.57) μg/L
same,Ctrough (formoterol),"[1]; steady state, Regimen B Day 18 (formoterol plus roflumilast), geometric mean (68% range)",3.94 (3.13-4.96) μg/L
same,"CO, Day 1-matched post-dose maximum dmax (δ), median",healthy subjects [2]; Day 8 (F),2.9 L/min
same,"CO, Day 1-matched post-dose minimum dmin (δ), median",healthy subjects [2]; Day 8 (F),-0.6 L/min
same,"CO, untransformed post-dose maximum dmax (U), median",healthy subjects [2]; Day 8 (F),11.8 L/min
same,"CO, untransformed post-dose minimum dmin (U), median",healthy subjects [2]; Day 8 (F),8.2 L/min
same,"CO, untransformed pre-dose morning value, median",healthy subjects [2]; Day 8 (F),9.7 L/min
same,"HR, Day 1-matched post-dose maximum dmax (δ), median",healthy subjects [2]; Day 8 (F),16 bpm
same,"HR, Day 1-matched post-dose minimum dmin (δ), median",healthy subjects [2]; Day 8 (F),-2 bpm
same,"HR, untransformed post-dose maximum dmax (U), median",healthy subjects [2]; Day 8 (F),72 bpm
same,"HR, untransformed post-dose minimum dmin (U), median",healthy subjects [2]; Day 8 (F),62 bpm
same,"HR, untransformed pre-dose morning value, median",healthy subjects [2]; Day 8 (F),66 bpm
same,"PEP, Day 1-matched post-dose maximum dmax (δ), median",healthy subjects [2]; Day 8 (F),25 ms
same,"PEP, Day 1-matched post-dose minimum dmin (δ), median",healthy subjects [2]; Day 8 (F),-26 ms
same,"PEP, untransformed post-dose maximum dmax (U), median",healthy subjects [2]; Day 8 (F),117 ms
same,"PEP, untransformed post-dose minimum dmin (U), median",healthy subjects [2]; Day 8 (F),84 ms
same,"PEP, untransformed pre-dose morning value, median",healthy subjects [2]; Day 8 (F),97 ms
same,"QS2, Day 1-matched post-dose maximum dmax (δ), median",healthy subjects [2]; Day 8 (F),13 ms
same,"QS2, Day 1-matched post-dose minimum dmin (δ), median",healthy subjects [2]; Day 8 (F),-47 ms
same,"QS2, untransformed post-dose maximum dmax (U), median",healthy subjects [2]; Day 8 (F),440 ms
same,"QS2, untransformed post-dose minimum dmin (U), median",healthy subjects [2]; Day 8 (F),408 ms
same,"QS2, untransformed pre-dose morning value, median",healthy subjects [2]; Day 8 (F),431 ms
same,"TPR, Day 1-matched post-dose maximum dmax (δ), median",healthy subjects [2]; Day 8 (F),61 dyn.s.cm^-5
same,"TPR, Day 1-matched post-dose minimum dmin (δ), median",healthy subjects [2]; Day 8 (F),-221 dyn.s.cm^-5
same,"TPR, untransformed post-dose maximum dmax (U), median",healthy subjects [2]; Day 8 (F),882 dyn.s.cm^-5
same,"TPR, untransformed post-dose minimum dmin (U), median",healthy subjects [2]; Day 8 (F),561 dyn.s.cm^-5
same,"TPR, untransformed pre-dose morning value, median",healthy subjects [2]; Day 8 (F),668 dyn.s.cm^-5
same,"dZ/dt, Day 1-matched post-dose maximum dmax (δ), median",healthy subjects [2]; Day 8 (F),0.32 Ω/s
same,"dZ/dt, Day 1-matched post-dose minimum dmin (δ), median",healthy subjects [2]; Day 8 (F),-0.29 Ω/s
same,"dZ/dt, untransformed post-dose maximum dmax (U), median",healthy subjects [2]; Day 8 (F),2.10 Ω/s
same,"dZ/dt, untransformed post-dose minimum dmin (U), median",healthy subjects [2]; Day 8 (F),1.64 Ω/s
same,"dZ/dt, untransformed pre-dose morning value, median",healthy subjects [2]; Day 8 (F),1.94 Ω/s
same,"CO, dmax (U), point estimate (95% CI) of difference between days",healthy subjects [2]; Day 8-Day 1,1.7 (0.6 to 2.6) L/min
same,"CO, dmin (U), point estimate (95% CI) of difference between days",healthy subjects [2]; Day 8-Day 1,0.5 (-0.5 to 1.4) L/min
same,"CO, untransformed pre-dose morning value, point estimate (95% CI) of difference between days",healthy subjects [2]; Day 8-Day 1,0.7 (-0.9 to 2.0) L/min
same,"HR, dmax (U), point estimate (95% CI) of difference between days",healthy subjects [2]; Day 8-Day 1,9 (5 to 11) bpm
same,"HR, dmin (U), point estimate (95% CI) of difference between days",healthy subjects [2]; Day 8-Day 1,7 (3 to 10) bpm
same,"HR, untransformed pre-dose morning value, point estimate (95% CI) of difference between days",healthy subjects [2]; Day 8-Day 1,5 (2 to 9) bpm
same,"PEP, dmax (U), point estimate (95% CI) of difference between days",healthy subjects [2]; Day 8-Day 1,-4 (-14 to 2) ms
same,"PEP, dmin (U), point estimate (95% CI) of difference between days",healthy subjects [2]; Day 8-Day 1,0 (-7 to 6) ms
same,"PEP, untransformed pre-dose morning value, point estimate (95% CI) of difference between days",healthy subjects [2]; Day 8-Day 1,-7 (-22 to 7) ms
same,"QS2, dmax (U), point estimate (95% CI) of difference between days",healthy subjects [2]; Day 8-Day 1,-14 (-27 to 4) ms
same,"QS2, dmin (U), point estimate (95% CI) of difference between days",healthy subjects [2]; Day 8-Day 1,-13 (-22 to -3) ms
same,"QS2, untransformed pre-dose morning value, point estimate (95% CI) of difference between days",healthy subjects [2]; Day 8-Day 1,-4 (-18 to 9) ms
same,"TPR, dmax (U), point estimate (95% CI) of difference between days",healthy subjects [2]; Day 8-Day 1,-49 (-160 to 80) dyn.s.cm^-5
same,"TPR, dmin (U), point estimate (95% CI) of difference between days",healthy subjects [2]; Day 8-Day 1,-96 (-188 to -24) dyn.s.cm^-5
same,"TPR, untransformed pre-dose morning value, point estimate (95% CI) of difference between days",healthy subjects [2]; Day 8-Day 1,-18 (-198 to 70) dyn.s.cm^-5
same,"dZ/dt, dmax (U), point estimate (95% CI) of difference between days",healthy subjects [2]; Day 8-Day 1,0.01 (-0.15 to 0.21) Ω/s
same,"dZ/dt, dmin (U), point estimate (95% CI) of difference between days",healthy subjects [2]; Day 8-Day 1,0.03 (-0.13 to 0.17) Ω/s
same,"dZ/dt, untransformed pre-dose morning value, point estimate (95% CI) of difference between days",healthy subjects [2]; Day 8-Day 1,0.06 (-0.07 to 0.19) Ω/s
same,HR (ECG),healthy subjects [3]; 12-lead ECG,slight increase
same,"QTc values, uncorrected or corrected using Bazett's or Fridericia's formula",healthy subjects [3]; 12-lead ECG,no clinically relevant changes
same,duration of the QT interval,healthy subjects [3]; 12-lead ECG,decrease
same,QT/QTc intervals,"healthy subjects [3]; all subjects, all regimens",below 450 ms
same,number of AEs,"healthy subjects [4]; Regimen B, Day 2 to Day 8",no AEs were reported
same,tremor,healthy subjects [4]; administered alone (Regimens A and B respectively),not observed
same,drug-drug interaction with roflumilast,"[5]; orally co-administered formoterol, Phase I study, ref unpublished data, Nycomed GmbH, 2002",no apparent drug-drug interaction
same,inhibitory effect of roflumilast on cytokine and tumour necrosis factor-α production,[6],increased
same,post-dose serum glucose,[7],slight post-dose increase
same,pre-dose serum potassium concentration,[8],4.38 mmol/L
O=C(Nc1c(Cl)c[n+]([O-])cc1Cl)c1ccc(OC(F)F)c(OCC2CC2)c1 [Roflumilast N-oxide],changes in steady-state pharmacokinetics when the other drug was added,[1]; in vivo,no relevant changes
same,AUC greater than that of roflumilast,[9],10 fold
same,median effective plasma half-life,[9]; repeated dose,30 h
same,median time to maximum plasma concentration (tmax),[9]; repeated dose,8 h
CCCC1O[C@@H]2C[C@H]3[C@@H]4CCC5=CC(=O)C=C[C@]5(C)[C@H]4[C@@H](O)C[C@]3(C)[C@]2(C(=O)CO)O1 (some centres unmarked) [budesonide],pharmacokinetic interaction on co-administration with roflumilast,[5]; healthy volunteers,no relevant pharmacokinetic interactions
